Results on eight compounds are retold here after patent EP0126012B1, “Pharmaceutical compositions containing symmetrical disulfides” (SANOFI S.A., priority 1983, dated 1984).

One assay deals with falciformation.
Experiment: not given
To be noted: literature (Inserm Symposium 1979); cited from earlier work.
For the compound `NCCSSCCN` [cystamine, reference compound], the “inhibition de la falciformation” value is recorded as “particulièrement active”.

The subject of a further assay is globules rouges des drépanocytaires. The experiment in a line: Inhibition of sickling of human erythrocytes from sickle-cell patients under deoxygenation (Nomarski microscopy). The format is cell-based, humains. To be noted: inhibition de la falciformation des érythrocytes; incubation 1 h at 37°C, pH 7,40, with product; molar ratio produit/hémoglobine initially 0,5 to 20; ratio used for the table values not given. On the procedure:
L'inhibition de la falciformation des érythrocytes humains a été évaluée selon la méthode consistant à laver et incuber dans un tampon salin (pH 7,40 - 0,15 M), les globules rouges des drépanocytaires pendant une heure à 37°C dans un bainmarie sous agitation circulaire en présence du produit ci-dessus à différentes concentrations. Dans cette opération le rapport molaire produit/hémoglobine est testé initialement dans l'intervalle allant de 0,5 à 20. En fonction des résultats obtenus, ce rapport est modifié. A la fin de l'incubation, l'excès de produit est enlevé par lavage. La suspension cellulaire ajustée à un hématocrite de 5 % est transférée dans un Erlenmeyer et incubée à 37°C sous un courant d'un mélange humidifié d'azote et d'oxygène. La concentration d'oxygène est réglée par une pompe à mélange gazeux. Le gaz effluent est transféré dans un autre tube contenant du formaldéhyde. A la fin de l'incubation, la suspension cellulaire est transférée dans le formaldéhyde par simple retournement de la fiole.
La proportion des cellules déformées et de celles ayant les caractéristiques de drépanocytes (présentant deux prolongements filiformes) est évaluée à l'aide d'un microscope ayant une optique interférentielle de NOMARSKY. L'inhibition de la falciformation a été calculée selon la formule suivante: • % cellules falciformées - % cellules falciformées en témoins présence de la drogue % cellules falciformées du témoin
For `c1c[nH]c(SSc2ncc[nH]2)n1` [2,2'-dithiodi(1H-imidazole)], the % inhibition – broadly, the relative decrease from the control value, in per cent – amounted to 80%. Same read-out and setting: then `C1CSC(SSC2=NCCS2)=N1` [2,2'-dithiodi(4,5-dihydrothiazole)], with 90%; and `c1cnc(SSc2ncccn2)nc1` [2,2'-dithiodipyrimidine], with 50%.

As for `c1nc(SSc2nc[nH]n2)n[nH]1` [3,3'-dithiodi(1H-1,2,4-triazole)], the “% inhibition” value is listed as 100%. For `NCCSSCCN` [cystamine, reference compound], the “% inhibition” value is recorded as 33%. The same measure, in the same setting: with `NC(=O)CSSCC(N)=O` [dithio-diacétamide] the figure was 80%. On the same count and under the same terms, then `CN(C)C(=O)CSSCC(=O)N(C)C` [dithiodi(N,N-diméthyl)acétamide], with 95%; and `N=C(N)SSC(=N)N` [dithiodiformamidine], with 100%.
